Laboratory results as given in ChEMBL document CHEMBL3797052 (Eur J Med Chem, 2016).

Legend:
NCI-H23 [1] = experiment: Antiproliferative activity against human NCI-H23 cells assessed as cell growth at 10^-4 M after 48 hrs by sulforhodamine B assay; format: functional; settings: NCI-H23, 48 h, read-out: Activity
NCI-H322M = experiment: Antiproliferative activity against human NCI-H322M cells assessed as cell growth at 10^-6 M after 48 hrs by sulforhodamine B assay; format: functional; settings: read-out: Activity
EKVX = experiment: Antiproliferative activity against human EKVX cells assessed as growth inhibition after 48 hrs by sulforhodamine B assay; format: functional
SK-MEL-2 = experiment: Antiproliferative activity against human SK-MEL-2 cells assessed as cell growth at 10^-7 M after 48 hrs by sulforhodamine B assay; format: functional; settings: SK-MEL-2, 48 h, read-out: Activity
Malme-3M = experiment: Antiproliferative activity against human MALME-3M cells assessed as cell growth at 10^-4 M after 48 hrs by sulforhodamine B assay; format: functional; settings: read-out: Activity
hERG (KCNH2) = hERG (KCNH2) (Homo sapiens, UniProt Q12809); experiment: Inhibition of human ERG assessed as reduction in channel current at 100 uM by automated patch-clamp electrophysiology assay
Sequence of hERG (KCNH2) (Q12809 whole entry): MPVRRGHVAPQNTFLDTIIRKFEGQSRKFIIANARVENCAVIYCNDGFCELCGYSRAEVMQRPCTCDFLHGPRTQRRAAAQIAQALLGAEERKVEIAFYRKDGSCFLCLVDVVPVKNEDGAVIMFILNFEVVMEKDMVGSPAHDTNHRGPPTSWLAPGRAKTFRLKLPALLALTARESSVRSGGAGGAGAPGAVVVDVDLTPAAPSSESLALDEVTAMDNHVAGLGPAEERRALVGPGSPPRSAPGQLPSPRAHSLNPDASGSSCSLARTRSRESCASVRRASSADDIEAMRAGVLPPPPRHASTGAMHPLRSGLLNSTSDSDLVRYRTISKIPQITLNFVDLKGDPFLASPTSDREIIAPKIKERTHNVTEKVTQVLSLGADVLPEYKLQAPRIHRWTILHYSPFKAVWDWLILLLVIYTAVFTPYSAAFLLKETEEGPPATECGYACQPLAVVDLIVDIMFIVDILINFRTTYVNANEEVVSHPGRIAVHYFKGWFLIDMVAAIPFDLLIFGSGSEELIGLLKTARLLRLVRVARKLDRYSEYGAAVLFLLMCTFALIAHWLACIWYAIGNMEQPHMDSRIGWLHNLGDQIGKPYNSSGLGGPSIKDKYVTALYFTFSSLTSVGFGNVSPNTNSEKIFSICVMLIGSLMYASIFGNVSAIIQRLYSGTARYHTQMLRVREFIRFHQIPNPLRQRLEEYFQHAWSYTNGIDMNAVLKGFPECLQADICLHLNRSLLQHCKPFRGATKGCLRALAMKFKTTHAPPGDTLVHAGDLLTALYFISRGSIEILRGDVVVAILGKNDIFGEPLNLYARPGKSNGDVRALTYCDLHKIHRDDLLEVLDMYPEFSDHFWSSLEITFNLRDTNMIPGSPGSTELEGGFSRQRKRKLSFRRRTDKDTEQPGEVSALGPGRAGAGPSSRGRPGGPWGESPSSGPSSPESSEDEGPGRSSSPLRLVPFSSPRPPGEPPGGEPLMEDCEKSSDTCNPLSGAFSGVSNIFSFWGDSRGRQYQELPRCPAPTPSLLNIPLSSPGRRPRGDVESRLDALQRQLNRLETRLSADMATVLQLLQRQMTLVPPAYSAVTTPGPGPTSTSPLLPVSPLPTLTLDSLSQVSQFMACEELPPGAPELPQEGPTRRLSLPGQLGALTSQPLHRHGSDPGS

[2] = Antiproliferative activity against human Caki1 cells assessed as growth inhibition after 48 hrs by sulforhodamine B assay; format: functional; settings: CAKI-1, 48 h; for CC50: read-out: LC50 (the source's name)
M14 = experiment: Antiproliferative activity against human M14 cells assessed as cell growth at 10^-7 M after 48 hrs by sulforhodamine B assay; format: functional; settings: M14, 48 h, read-out: Activity
[3] = Antiproliferative activity against human HCT15 cells assessed as cell growth at 10^-7 M after 48 hrs by sulforhodamine B assay; format: functional; settings: HCT-15, 48 h, read-out: Activity
[4] = Antiproliferative activity against human SW620 cells assessed as cell growth at 10^-6 M after 48 hrs by sulforhodamine B assay; format: functional; settings: SW-620, 48 h, read-out: Activity
[5] = molecular target: Voltage-gated inwardly rectifying potassium channel KCNH2 (Homo sapiens, UniProt Q12809); experiment: Inhibition of human ERG assessed as reduction in channel current by automated patch-clamp electrophysiology assay
Sequence of Voltage-gated inwardly rectifying potassium channel KCNH2 (Q12809 whole entry): as above

NCI-H522 = experiment: Antiproliferative activity against human NCI-H522 cells assessed as cell growth at 10^-6 M after 48 hrs by sulforhodamine B assay; format: functional; settings: NCI-H522, 48 h, read-out: Activity
[6] = Antiproliferative activity against human HOP62 cells assessed as cell growth at 10^-8 M after 48 hrs by sulforhodamine B assay; format: functional; settings: HOP-62, 48 h, read-out: Activity
[7] = Antiproliferative activity against human SNB75 cells assessed as cell growth at 10^-4 M after 48 hrs by sulforhodamine B assay; format: functional; settings: SNB-75, 48 h, read-out: Activity
[8] = Antiproliferative activity against human SKOV3 cells assessed as cell growth at 10^-7 M after 48 hrs by sulforhodamine B assay; format: functional; settings: SK-OV-3, 48 h, read-out: Activity
K562 = experiment: Antiproliferative activity against human K562 cells assessed as cell growth at 10^-4 M after 48 hrs by sulforhodamine B assay; format: functional; settings: K562, 48 h, read-out: Activity
[9] = Antiproliferative activity against human IGROV1 cells assessed as growth inhibition after 48 hrs by sulforhodamine B assay; format: functional; settings: IGROV-1, 48 h; for CC50: read-out: LC50 (the source's name)
[10] = Antiproliferative activity against human SF539 cells assessed as cell growth at 10^-6 M after 48 hrs by sulforhodamine B assay; format: functional; settings: SF-539, 48 h, read-out: Activity
SR = experiment: Antiproliferative activity against human SR cells assessed as cell growth at 10^-7 M after 48 hrs by sulforhodamine B assay; format: functional; settings: read-out: Activity
NCI-H460 [11] = experiment: Antiproliferative activity against human NCI-H460 cells assessed as cell growth at 10^-7 M after 48 hrs by sulforhodamine B assay; format: functional; settings: NCI-H460, 48 h, read-out: Activity
[12] = Antiproliferative activity against human HOP62 cells assessed as cell growth at 10^-6 M after 48 hrs by sulforhodamine B assay; format: functional; settings: HOP-62, 48 h, read-out: Activity
[13] = Antiproliferative activity against human NCI-ADR-RES cells assessed as cell growth at 10^-6 M after 48 hrs by sulforhodamine B assay; format: functional; settings: read-out: Activity
SK-MEL-5 [14] = experiment: Antiproliferative activity against human SK-MEL-5 cells assessed as cell growth at 10^-6 M after 48 hrs by sulforhodamine B assay; format: functional; settings: SK-MEL-5, 48 h, read-out: Activity
NCI-H460 [15] = experiment: Antiproliferative activity against human NCI-H460 cells assessed as cell growth at 10^-6 M after 48 hrs by sulforhodamine B assay; format: functional; settings: NCI-H460, 48 h, read-out: Activity
[16] = Antiproliferative activity against human LOXIMVI cells assessed as growth inhibition after 48 hrs by sulforhodamine B assay; format: functional; settings: LOX IMVI; for CC50: read-out: LC50 (the source's name)
NCI-H23 [17] = experiment: Antiproliferative activity against human NCI-H23 cells assessed as cell growth at 10^-8 M after 48 hrs by sulforhodamine B assay; format: functional; settings: NCI-H23, 48 h, read-out: Activity
MDA-MB-231 = experiment: Antiproliferative activity against human MDA-MB-231 cells assessed as cell growth at 10^-8 M after 48 hrs by sulforhodamine B assay; format: functional; settings: MDA-MB-231, 48 h, read-out: Activity
[18] = Antiproliferative activity against human UACC257 cells assessed as cell growth at 10^-7 M after 48 hrs by sulforhodamine B assay; format: functional; settings: UACC-257, 48 h, read-out: Activity
[19] = Antiproliferative activity against human OVCAR8 cells assessed as cell growth at 10^-7 M after 48 hrs by sulforhodamine B assay; format: functional; settings: OVCAR-8, 48 h, read-out: Activity
[20] = Antiproliferative activity against human LOXIMVI cells assessed as cell growth at 10^-4 M after 48 hrs by sulforhodamine B assay; format: functional; settings: LOX IMVI, read-out: Activity
MDA-MB-435 = experiment: Antiproliferative activity against human MDA-MB-435 cells assessed as cell growth at 10^-6 M after 48 hrs by sulforhodamine B assay; format: functional; settings: MDA-MB-435, 48 h, read-out: Activity
[21] = Antiproliferative activity against human HCC2998 cells assessed as cell growth at 10^-7 M after 48 hrs by sulforhodamine B assay; format: functional; settings: HCC 2998, 48 h, read-out: Activity
CCRF-CEM = experiment: Antiproliferative activity against human CCRF-CEM cells assessed as cell growth at 10^-8 M after 48 hrs by sulforhodamine B assay; format: functional; settings: read-out: Activity
HT-29 = experiment: Antiproliferative activity against human HT-29 cells assessed as cell growth at 10^-8 M after 48 hrs by sulforhodamine B assay; format: functional; settings: HT-29, 48 h, read-out: Activity
KM12 = experiment: Antiproliferative activity against human KM12 cells assessed as cell growth at 10^-8 M after 48 hrs by sulforhodamine B assay; format: functional; settings: KM12, 48 h, read-out: Activity
NCI-H23 [22] = experiment: Antiproliferative activity against human NCI-H23 cells assessed as cell growth at 10^-7 M after 48 hrs by sulforhodamine B assay; format: functional; settings: NCI-H23, 48 h, read-out: Activity
SK-MEL-5 [23] = experiment: Antiproliferative activity against human SK-MEL-5 cells assessed as cell growth at 10^-8 M after 48 hrs by sulforhodamine B assay; format: functional; settings: SK-MEL-5, 48 h, read-out: Activity

Work on `CNC(=O)c1cc(Oc2ccc3nc(NC(=O)Nc4ccc(Cl)c(C(F)(F)F)c4)sc3c2)ccn1` yielded a growth at 100 µM (NCI-H23 [1]) of -40%, a growth at 1 µM (NCI-H322M) of 96% and a GI50 (EKVX) of 1750 nM. For the same molecule, the TGI (EKVX) was 4.18 µM, the growth at 0.1 µM (SK-MEL-2) was 99% and the growth at 100 µM (Malme-3M) was -48%. For the same molecule, the inhibition at 100 µM (hERG (KCNH2)) was 26.2%, the GI50 [2] was 2540 nM and the CC50 [2] was > 100 µM. For the same molecule, the growth at 0.1 µM (M14) was 92%, the growth at 0.1 µM [3] was 96% and the growth at 1 µM [4] was 91%. For the same molecule, the IC50 [5] was > 100 µM, the growth at 1 µM (NCI-H522) was 80% and the growth at 0.01 µM [6] was 92%. The growth at 100 µM [7] was -80%, the growth at 0.1 µM [8] was 103% and the growth at 100 µM (K562) was 59%. The GI50 [9] was 2.02 µM, the TGI [9] was 5.12 µM and the CC50 [9] was > 100 µM. It also gave a growth at 1 µM [10] of 87%, a growth at 0.1 µM (SR) of 105% and a growth at 0.1 µM (NCI-H460 [11]) of 103%. It also gave a growth at 1 µM [12] of 87%, a growth at 1 µM [13] of 94% and a growth at 1 µM (SK-MEL-5 [14]) of 87%. For the same molecule, the growth at 1 µM (NCI-H460 [15]) was 86%, the GI50 [16] was 2.68 µM and the TGI [16] was > 100 µM. The CC50 [16] was > 100 µM, the growth at 0.01 µM (NCI-H23 [17]) was 100% and the growth at 0.01 µM (MDA-MB-231) was 115%. For the same molecule, the growth at 0.1 µM [18] was 98%, the growth at 0.1 µM [19] was 108% and the growth at 100 µM [20] was 11%. For the same molecule, the growth at 1 µM (MDA-MB-435) was 83%, the growth at 0.1 µM [21] was 108% and the growth at 0.01 µM (CCRF-CEM) was 105%. For the same molecule, the growth at 0.01 µM (HT-29) was 99%, the growth at 0.01 µM (KM12) was 103% and the growth at 0.1 µM (NCI-H23 [22]) was 97%. For the same molecule, the growth at 0.01 µM (SK-MEL-5 [23]) was 93%.

`CNC(=O)c1cc(Oc2ccc3nc(NC(=O)c4cc(C(F)(F)F)cc(C(F)(F)F)c4)sc3c2)ccn1` gave a growth at 100 µM (NCI-H23 [1]) of -45%, a growth at 1 µM (NCI-H322M) of 52% and a GI50 (EKVX) of 3430 nM. The TGI (EKVX) was 23.3 µM, the CC50 (EKVX; read-out: LC50 (the source's name)) was > 100 µM and the growth at 0.1 µM (SK-MEL-2) was 97%. It also gave a growth at 100 µM (Malme-3M) of -38%, a GI50 [2] of 2750 nM and a TGI [2] of 10.7 µM. It also gave a CC50 [2] of 62.3 µM, a growth at 0.1 µM (M14) of 91% and a growth at 0.1 µM [3] of 96%. It also gave a growth at 1 µM [4] of 105%, an IC50 [5] of 48.4 µM and a growth at 1 µM (NCI-H522) of 96%. It also gave a growth at 0.01 µM [6] of 99%, a growth at 100 µM [7] of -51% and a growth at 0.1 µM [8] of 91%. The growth at 100 µM (K562) was 4%, the GI50 [9] was 4.26 µM and the TGI [9] was 27 µM. The CC50 [9] was > 100 µM, the growth at 1 µM [10] was 87% and the growth at 0.1 µM (SR) was 89%. The growth at 0.1 µM (NCI-H460 [11]) was 105%, the growth at 1 µM [12] was 103% and the growth at 1 µM [13] was 96%. The growth at 1 µM (SK-MEL-5 [14]) was 83%, the growth at 1 µM (NCI-H460 [15]) was 101% and the GI50 [16] was 3.39 µM. For the same molecule, the TGI [16] was 15.1 µM, the CC50 [16] was 97.5 µM and the growth at 0.01 µM (NCI-H23 [17]) was 96%. For the same molecule, the growth at 0.01 µM (MDA-MB-231) was 108%, the growth at 0.1 µM [18] was 95% and the growth at 0.1 µM [19] was 102%. The growth at 100 µM [20] was -51%, the growth at 1 µM (MDA-MB-435) was 96% and the growth at 0.1 µM [21] was 108%. The growth at 0.01 µM (CCRF-CEM) was 99%, the growth at 0.01 µM (HT-29) was 108% and the growth at 0.01 µM (KM12) was 101%. For the same molecule, the growth at 0.1 µM (NCI-H23 [22]) was 95% and the growth at 0.01 µM (SK-MEL-5 [23]) was 95%.
